These results are taken from patent US20230076733A1, “Combination Therapy” (AGENCY FOR SCIENCE, TECHNOLOGY AND RESEARCH, priority 2020, published 2023).

For orientation: IC50 means the midpoint of a concentration-inhibition curve.

Common to all, as to type: cell-based
One experiment relates to PA-TU-8988T cells. Briefly: soft agar colony formation assay, PA-TU-8988T cells. Particulars: for IC50: PA-TU-8988T cells, pre-determined by dose-response assay; for Colony count: PA-TU-8988T, duplicate wells. How it is done:
The IC50 and EC50 values for each combination partner (a) and (b) with the specific cell lines are determined from the response plot. A dose-response assay for each combination partner and the combination at different concentrations based on the IC50 values of each combination partner was performed. Computed EC50-EC95 values were then generated by a software (as disclosed herein) based on the drug concentration and the respective colony growth numbers. 6. Cell lines used and number of cells seeded per well [table] (1) Base Layer—0.6% Agar per 300 μL per well. Microwave the agar for 1-2 min so that it is completely melted. Add 5.4 ml of the melted agar into 21.6 ml of pre-warmed media (All media and agar preparation is made in excess for 2.5 plates). Aliquot 300 μl of the suspension into each well, avoiding the first and last columns of the plates. Fill the first and last columns of wells with 500 μl of sterile water or phosphate buffered saline. Incubate the plates in 37° C. incubator for 45 min-1 hr to allow agar to solidify. (2) Middle Layer— 0.3% Agar plus corresponding number of cells per well Trypsinize the adherent cells and suspend them in 5 ml of media. Determine the number of cells in the suspension and calculate the volume of cell suspension required for seeding. Mix the agar and media together first, excluding the volume of cell suspension. Add the cell suspension last into the mixture. Mix well and aliquot 250 μl into each well containing the base layer. Incubate the plates in a 37° C. incubator for 1-1.5 hrs to allow the agar to solidify. […] Prepare the required concentration of compounds based on the IC50 values of each drug. (Pre-determine the IC50 values for each drug with the corresponding cell-line using a dose-response assay) Row A& B: Aliquot 250 μl of diluted Drug A per well Row C&D: Aliquot 250 μl of diluted Drug B per well Row E& F: Aliquot 250 μl of diluted Drug A and B mixed at 1:1 ratio for each well Assay Results Analysis Method • 1. Score the colonies after 2 to 3 weeks depending on the colony forming status for different cell line. • 2. Before scoring the colonies, add 35 μl MTT (5 mg/ml) to the wells with cells and incubate at 37° C. for 2-3 hrs depending on the intensity of colour development. • 3. Once the colonies are stained, count the total number of colonies formed using the Oxford Optronix GelCount® instrument. • 4. Average the total number of colonies obtained for each drug dose point and represent it as a fraction over the control. This represents the fraction of colony growth. […] Incorporate the fraction of inhibition and the corresponding dose values into the Chou Talalay Software available online (http://www.combosyn.com/) to obtain the combination index values. • 6. The combination index values will give an indication as to whether the combined drugs are synergistic, antagonistic or additive in the treated cells, as shown in Table 2 below. FIG. 12 illustrates a dose-response assay plate containing PA-TU-8988T cells (Test 1) after testing compounds at different concentrations based on the IC50 values of each compound. […] is a cell line established from pancreatic adenocarcinoma (pancreatic cancer).

In the next experiment the test system is HPAF-II cells. Briefly: expression of DNA repair genes by qRT-PCR, HPAF-II cells. Conditions: 100 nM for 48 hr versus DMSO. How it is done: (§1) Tumors were homogenised in RLT buffer using a polytron homogenizer. Total RNA was isolated using RNAeasy kit (Qiagen, Germany) according to manufacturer's protocol. For qPT-PCR, RNA was reverse transcribed with iScript reverse transcriptase (BioRAD, Hercules, Calif., USA). Real time quantitative PCR (qPCR) was performed using SsoFast EvaGreen assay Supermix from BioRad (Hercules, Calif., USA). EPN1 and ACTB were used as housekeeping genes.
(§2) Inhibition of Wnt signalling reduces expression of DNA repair genes: HPAF-II, AsPC-1 or PaTu899S cells were treated with either DMSO or 100 nM compound of Formula (I) for 48 hr. The expression of the indicated genes was measured by qRT-PCR. FIGS. 14-16 illustrates the results.
Background: In qPCR the cycle at which signal appears reflects the starting amount.

Another experiment has as its system AsPC-1 cells. Briefly: expression of DNA repair genes by qRT-PCR, AsPC-1 cells. Particulars: 100 nM for 48 hr versus DMSO. On the procedure: as §1, §2
In another experiment the test system is PaTu899S cells. Put plainly: expression of DNA repair genes by qRT-PCR, PaTu899S cells. Conditions: 100 nM for 48 hr versus DMSO. How it is done: as §1, §2
The mark [1] stands for this setting: Test 1, 0.25x IC50: dose Olaparib 0.2525, Ex 1 0.275, combination both 1:1.
The mark [2] stands for this setting: Test 1, 0.5x IC50: dose Olaparib 0.505, Ex 1 0.55, combination both 1:1.
[3] abbreviates: Test 1, 1x IC50: dose Olaparib 1.01, Ex 1 1.1, combination both 1:1.
Setting [4] is: Test 1, 2x IC50: dose Olaparib 2.02, Ex 1 2.2, combination both 1:1.
Setting [5] is: Test 1, 4x IC50: dose Olaparib 4.04, Ex 1 4.4, combination both 1:1.
Where [6] appears, read: Test 2, 0.25x IC50: dose Olaparib 0.2525, Ex 1 0.275, combination both 1:1.
Where [7] appears, read: Test 2, 0.5x IC50: dose Olaparib 0.505, Ex 1 0.55, combination both 1:1.
The mark [8] stands for this setting: Test 2, 1x IC50: dose Olaparib 1.01, Ex 1 1.1, combination both 1:1.
Where [9] appears, read: Test 2, 2x IC50: dose Olaparib 2.02, Ex 1 2.2, combination both 1:1.
[10] abbreviates: Test 2, 4x IC50: dose Olaparib 4.04, Ex 1 4.4, combination both 1:1.

Where “and” joins values, the source holds several entries; their conditions need not be identical. Equal values may be shown once.

`O=C(c1cc(Cc2n[nH]c(=O)c3ccccc23)ccc1F)N1CCN(C(=O)C2CC2)CC1` [Olaparib, reference compound]: the IC50 in the experiment on PA-TU-8988T cells (Homo sapiens, PaTu 8988t) is 1010 nM. The Colony count with PA-TU-8988T cells (setting [1]) was 537 and 426; with PA-TU-8988T cells (setting [2]), 425 and 331; in the experiment on PA-TU-8988T cells (setting [3]) it was 398 and 327; with PA-TU-8988T cells (setting [4]), 411 and 325; in the experiment with PA-TU-8988T cells (setting [5]) it was 362 and 307; with PA-TU-8988T cells (setting [6]), 222 and 170. In addition, the Colony count in the experiment with PA-TU-8988T cells (setting [7]) was 180 and 155; in the experiment with PA-TU-8988T cells (setting [8]) it was 146 and 150; with PA-TU-8988T cells (setting [9]), 136 and 143; with PA-TU-8988T cells (setting [10]) it was 180 and 125.

Consider `Cn1c(=O)c2c(ncn2CC(=O)Nc2ccc(-c3ccccc3)nn2)n(C)c1=O` [Ex 1, 2-(1,3-dimethyl-2,6-dioxo-2,3-dihydro-1H-purin-7 (6H)-yl)-N-(6-phenylpyridazin-3-yl)acetamide], for which the IC50 in the experiment with PA-TU-8988T cells was 1100 nM. Moreover, the Colony count with PA-TU-8988T cells (setting [1]) was 420 and 494; in the experiment with PA-TU-8988T cells (setting [2]) it was 343 and 488; with PA-TU-8988T cells (setting [3]) it was 215 and 393; in the experiment with PA-TU-8988T cells (setting [4]), 250 and 311; with PA-TU-8988T cells (setting [5]), 212 and 296; with PA-TU-8988T cells (setting [6]), 200 and 237. For the same compound, the Colony count in the experiment with PA-TU-8988T cells (setting [7]) was 143 and 227; in the experiment with PA-TU-8988T cells (setting [8]) it was 156 and 209; in the experiment with PA-TU-8988T cells (setting [9]), 155 and 215; in the experiment with PA-TU-8988T cells (setting [10]), 125 and 186. Also, the “expression of DNA repair genes BRCA1, BRCA2, FANCD2, FANCG, RAD51 and XRCC3” value in the experiment with HPAF-II cells, in the experiment with AsPC-1 cells and in the experiment with PaTu899S cells was “inhibited the expression of DNA repair genes” throughout.
